# Laboratory results from PMC5218480 (PLoS ONE, 2017).
# System: MV-4-11 cells
# Assay: Gene expression microarray analysis (Affymetrix PrimeView) and GSEA
# Type: cell-based, human
# Design: RFU PODN (11730768_x_at) / Fold change /veh PODN (11730768_x_at) / RFU LINC00158 (11744669_a_at) / Fold change /veh LINC00158 (11744669_a_at) / RFU DUSP10 (11751237_a_at) / Fold change /veh DUSP10 (11751237_a_at) / RFU ID3 (11757404_x_at) / Fold change /veh ID3 (11757404_x_at) / RFU PLEKHG5 (11737974_s_at) / Fold change /veh PLEKHG5 (11737974_s_at) / RFU LRRC4B (11730491_at) / Fold change /veh LRRC4B (11730491_at) / RFU GIMAP4 (11747438_a_at) / Fold change /veh GIMAP4 (11747438_a_at) / RFU KRT8 (11758183_x_at) / Fold change /veh KRT8 (11758183_x_at) / RFU CNN1 (11734310_a_at) / Fold change /veh CNN1 (11734310_a_at) / RFU VPS37D (11726825_at) / Fold change /veh VPS37D (11726825_at) / RFU C10orf10 (11716522_x_at) / Fold change /veh C10orf10 (11716522_x_at) / RFU KIR2DL2 /// KIR2DL4 /// KIR2DL5A /// KIR2DL5B /// KIR2DS1 /// KIR2DS2 /// KIR2DS3 /// KIR2DS4 /// KIR3DL3 /// KIR3DL3 /// KIR3DS1 (11738374_at) / Fold change /veh KIR2DL2 /// KIR2DL4 /// KIR2DL5A /// KIR2DL5B /// KIR2DS1 /// KIR2DS2 /// KIR2DS3 /// KIR2DS4 /// KIR3DL3 /// KIR3DL3 /// KIR3DS1 (11738374_at) / RFU C1QL1 (11718748_at) / Fold change /veh C1QL1 (11718748_at) / RFU TMPRSS4 (11747572_a_at) / Fold change /veh TMPRSS4 (11747572_a_at) / RFU HAMP (11756126_x_at) / Fold change /veh HAMP (11756126_x_at) / RFU RNFT2 (11725882_a_at) / Fold change /veh RNFT2 (11725882_a_at) / RFU NR4A2 (11747474_a_at) / Fold change /veh NR4A2 (11747474_a_at) / RFU ABCC12 (11746883_a_at) / Fold change /veh ABCC12 (11746883_a_at) / RFU TMEM136 (11760407_x_at) / Fold change /veh TMEM136 (11760407_x_at) / RFU CLDN22 /// WWC2 (11732394_at) / Fold change /veh CLDN22 /// WWC2 (11732394_at) / RFU HLA-DPB1 (11760878_x_at) / Fold change /veh HLA-DPB1 (11760878_x_at) / RFU SPINT1 (11716480_a_at) / Fold change /veh SPINT1 (11716480_a_at) / RFU GAP43 (11754022_s_at) / Fold change /veh GAP43 (11754022_s_at) / RFU A4GNT (11735810_at) / Fold change /veh A4GNT (11735810_at) / RFU PRB3 (11715151_x_at) / Fold change /veh PRB3 (11715151_x_at) / RFU TUBB4B (11761932_at) / Fold change /veh TUBB4B (11761932_at) / RFU CAPN14 (11732068_a_at) / Fold change /veh CAPN14 (11732068_a_at) / RFU TMCC2 (11721928_a_at) / Fold change /veh TMCC2 (11721928_a_at) / RFU IRGQ (11745062_a_at) / Fold change /veh IRGQ (11745062_a_at) / RFU FAM174B (11720279_a_at) / Fold change /veh FAM174B (11720279_a_at) / RFU TMPRSS4 (11748680_a_at) / Fold change /veh TMPRSS4 (11748680_a_at) / RFU FAM212B (11763350_a_at) / Fold change /veh FAM212B (11763350_a_at) / RFU PLEKHG5 (11743358_a_at) / Fold change /veh PLEKHG5 (11743358_a_at) / RFU ZSCAN30 (11745921_a_at) / Fold change /veh ZSCAN30 (11745921_a_at) / RFU CMKLR1 (11741424_a_at) / Fold change /veh CMKLR1 (11741424_a_at) / RFU LOC101060620 /// MAPK8IP1 (11723275_at) / Fold change /veh LOC101060620 /// MAPK8IP1 (11723275_at) / RFU SPTSSB (11747773_x_at) / Fold change /veh SPTSSB (11747773_x_at) / RFU PRSS12 (11739890_at) / Fold change /veh PRSS12 (11739890_at) / RFU BIN1 (11741810_x_at) / Fold change /veh BIN1 (11741810_x_at) / RFU WNT11 (11732464_a_at) / Fold change /veh WNT11 (11732464_a_at) / RFU C10orf10 (11716521_a_at) / Fold change /veh C10orf10 (11716521_a_at) / RFU C5orf56 (11738089_at) / Fold change /veh C5orf56 (11738089_at) / RFU CYB561 (11721691_x_at) / Fold change /veh CYB561 (11721691_x_at) / RFU ANKRD19P (11752326_a_at) / Fold change /veh ANKRD19P (11752326_a_at) / RFU OR2T12 /// OR2T33 /// OR2T8 (11738714_s_at) / Fold change /veh OR2T12 /// OR2T33 /// OR2T8 (11738714_s_at) / RFU VCAN (11748164_a_at) / Fold change /veh VCAN (11748164_a_at) / RFU JSRP1 (11732532_at) / Fold change /veh JSRP1 (11732532_at) / RFU KRTAP10-11 (11738290_x_at) / Fold change /veh KRTAP10-11 (11738290_x_at) / RFU MYO3A (11730013_a_at) / Fold change /veh MYO3A (11730013_a_at) / RFU EBF3 (11725865_a_at) / Fold change /veh EBF3 (11725865_a_at) / RFU CAMK2N1 (11719241_x_at) / Fold change /veh CAMK2N1 (11719241_x_at) / RFU C5orf56 (11738088_a_at) / Fold change /veh C5orf56 (11738088_a_at) / RFU OLFML3 (11715873_a_at) / Fold change /veh OLFML3 (11715873_a_at) / RFU LOC100653217 /// NTM (11731650_a_at) / Fold change /veh LOC100653217 /// NTM (11731650_a_at) / RFU MAPK11 (11762145_a_at) / Fold change /veh MAPK11 (11762145_a_at) / RFU FIZ1 (11724087_x_at) / Fold change /veh FIZ1 (11724087_x_at) / RFU OASL (11726364_x_at) / Fold change /veh OASL (11726364_x_at) / RFU SOX15 (11748057_x_at) / Fold change /veh SOX15 (11748057_x_at) / RFU CD79A (11719716_a_at) / Fold change /veh CD79A (11719716_a_at) / RFU HIST1H1D (11736915_at) / Fold change /veh HIST1H1D (11736915_at) / RFU CASKIN2 (11723855_a_at) / Fold change /veh CASKIN2 (11723855_a_at) / RFU LOC730098 (11760151_x_at) / Fold change /veh LOC730098 (11760151_x_at) / RFU OR4N2 (11742367_at) / Fold change /veh OR4N2 (11742367_at) / RFU PRRT2 (11749266_a_at) / Fold change /veh PRRT2 (11749266_a_at) / RFU SNX32 (11753110_a_at) / Fold change /veh SNX32 (11753110_a_at) / RFU CDHR5 (11726645_a_at) / Fold change /veh CDHR5 (11726645_a_at) / RFU RCAN1 (11760418_a_at) / Fold change /veh RCAN1 (11760418_a_at) / RFU FAM167A (11723789_a_at) / Fold change /veh FAM167A (11723789_a_at) / RFU FAM26E (11764081_at) / Fold change /veh FAM26E (11764081_at) / RFU ISYNA1 (11749810_s_at) / Fold change /veh ISYNA1 (11749810_s_at) / RFU ACY1 (11761880_at) / Fold change /veh ACY1 (11761880_at) / RFU 11764098_at / Fold change /veh 11764098_at / RFU SAMD14 (11745864_x_at) / Fold change /veh SAMD14 (11745864_x_at) / RFU NPB (11741838_a_at) / Fold change /veh NPB (11741838_a_at) / RFU TMPRSS6 (11731388_a_at) / Fold change /veh TMPRSS6 (11731388_a_at) / RFU KRTAP10-2 (11738614_at) / Fold change /veh KRTAP10-2 (11738614_at) / RFU ARHGAP8 /// PRR5-ARHGAP8 (11727945_x_at) / Fold change /veh ARHGAP8 /// PRR5-ARHGAP8 (11727945_x_at) / RFU KRTAP5-7 /// NADSYN1 (11734609_at) / Fold change /veh KRTAP5-7 /// NADSYN1 (11734609_at) / RFU RASL12 (11751679_a_at) / Fold change /veh RASL12 (11751679_a_at) / RFU CDKN2B (11736163_a_at) / Fold change /veh CDKN2B (11736163_a_at) / RFU PRF1 (11729649_at) / Fold change /veh PRF1 (11729649_at) / RFU, ZNF638 /// ZNF638-IT1 / Fold change vs veh, ZNF638 /// ZNF638-IT1 / RFU, PANK3 / Fold change vs veh, PANK3 / RFU, SH3YL1 / Fold change vs veh, SH3YL1 / RFU, ZEB2 / Fold change vs veh, ZEB2 / RFU, NRIP1 / Fold change vs veh, NRIP1 / RFU, PTTG1IP / Fold change vs veh, PTTG1IP / RFU, CAPN2 / Fold change vs veh, CAPN2 / RFU, MED14 / Fold change vs veh, MED14 / RFU, SNORA58 / Fold change vs veh, SNORA58 / RFU, C1orf63 / Fold change vs veh, C1orf63 / RFU, LRRFIP1 / Fold change vs veh, LRRFIP1 / RFU, NDUFAF7 / Fold change vs veh, NDUFAF7 / RFU, SLC12A2 / Fold change vs veh, SLC12A2 / RFU, IBTK / Fold change vs veh, IBTK / RFU, ESF1 / Fold change vs veh, ESF1 / Fold change vs veh, TMEM50B / RFU, TAOK1 / Fold change vs veh, TAOK1 / RFU, ACBD3 / Fold change vs veh, ACBD3 / RFU, TMA16 / Fold change vs veh, TMA16 / RFU, RWDD3 / Fold change vs veh, RWDD3 / RFU, BCAT1 / Fold change vs veh, BCAT1 / RFU, EDEM3 / Fold change vs veh, EDEM3 / RFU, TMEM33 / Fold change vs veh, TMEM33 / RFU, WDR75 / Fold change vs veh, WDR75 / RFU, AHCTF1 / Fold change vs veh, AHCTF1 / RFU, TFRC / Fold change vs veh, TFRC / RFU, ZDHHC17 / Fold change vs veh, ZDHHC17 / RFU, NOM1 / Fold change vs veh, NOM1 / RFU, ARL8B / Fold change vs veh, ARL8B / RFU, ZBTB11 / Fold change vs veh, ZBTB11 / RFU, TAMM41 / Fold change vs veh, TAMM41 / RFU, KIAA1704 /// LOC100996395 / Fold change vs veh, KIAA1704 /// LOC100996395 / RFU, ING1 / Fold change vs veh, ING1 / RFU, TRMT61B / Fold change vs veh, TRMT61B / RFU, FUBP3 / Fold change vs veh, FUBP3 / RFU, TP53 / Fold change vs veh, TP53 / RFU, TNKS2 / Fold change vs veh, TNKS2 / RFU, ZFP14 / Fold change vs veh, ZFP14 / RFU, ACTR2 / Fold change vs veh, ACTR2 / RFU, PPP3R1 / Fold change vs veh, PPP3R1 / RFU, PIK3R1 / Fold change vs veh, PIK3R1 / RFU, HNRNPA1 / Fold change vs veh, HNRNPA1 / RFU, RNF170 / Fold change vs veh, RNF170 / RFU, ZNF28 / Fold change vs veh, ZNF28 / RFU, RNGTT / Fold change vs veh, RNGTT / RFU, OGT / Fold change vs veh, OGT / RFU, BRD1 / Fold change vs veh, BRD1 / RFU, MARS / Fold change vs veh, MARS / RFU, ZNF655 / Fold change vs veh, ZNF655 / RFU, FAHD1 / Fold change vs veh, FAHD1 / RFU, BDP1 / Fold change vs veh, BDP1 / RFU, LRRCC1 / Fold change vs veh, LRRCC1 / RFU, ARID1A / Fold change vs veh, ARID1A / RFU, ZNF146 / Fold change vs veh, ZNF146 / RFU, ZNF330 / Fold change vs veh, ZNF330 / RFU, GPN3 / Fold change vs veh, GPN3 / RFU, C9orf123 / Fold change vs veh, C9orf123 / RFU, N4BP2L2 / Fold change vs veh, N4BP2L2 / RFU, ARFIP1 / Fold change vs veh, ARFIP1 / RFU, FAM179B / Fold change vs veh, FAM179B / RFU, BCL10 / Fold change vs veh, BCL10 / RFU, UHRF1BP1L / Fold change vs veh, UHRF1BP1L / RFU, BET1 / Fold change vs veh, BET1 / RFU, CNOT2 / Fold change vs veh, CNOT2 / RFU, ZNF268 / Fold change vs veh, ZNF268 / Fold change vs veh, ZNF507 / RFU, DGCR2 / Fold change vs veh, DGCR2 / RFU, WDSUB1 / Fold change vs veh, WDSUB1 / Fold change vs veh, HSP90B1 /// MIR3652 / RFU, ADSS / Fold change vs veh, ADSS / RFU, GK / Fold change vs veh, GK / RFU, ZNF148 / Fold change vs veh, ZNF148 / RFU, TAF9 / Fold change vs veh, TAF9 / RFU, SLC1A5 / Fold change vs veh, SLC1A5 / RFU, SLMO2 / Fold change vs veh, SLMO2 / RFU, ABCC4 / Fold change vs veh, ABCC4 / RFU, LOC101060439 /// RAP1B / Fold change vs veh, LOC101060439 /// RAP1B / RFU, RFX7 / Fold change vs veh, RFX7 / RFU, GTPBP10 / Fold change vs veh, GTPBP10 / RFU, CNEP1R1 / Fold change vs veh, CNEP1R1 / RFU, BIVM-ERCC5 /// ERCC5 / Fold change vs veh, BIVM-ERCC5 /// ERCC5 / RFU, ILF3 / Fold change vs veh, ILF3 / RFU 11762660_at / Fold change /veh 11762660_at / RFU VCAN (11757783_s_at) / Fold change /veh VCAN (11757783_s_at) / RFU DDX43 (11728927_at) / Fold change /veh DDX43 (11728927_at) / RFU KRT8 (11758188_x_at) / Fold change /veh KRT8 (11758188_x_at) / RFU NKD1 (11759106_at) / Fold change /veh NKD1 (11759106_at) / RFU SRD5A1 (11742802_a_at) / Fold change /veh SRD5A1 (11742802_a_at) / RFU TPSAB1 /// TPSB2 (11721975_s_at) / Fold change /veh TPSAB1 /// TPSB2 (11721975_s_at) / RFU GSTM3 (11746129_a_at) / Fold change /veh GSTM3 (11746129_a_at) / RFU IL23R (11737362_x_at) / Fold change /veh IL23R (11737362_x_at) / RFU TMEM51 (11727254_a_at) / Fold change /veh TMEM51 (11727254_a_at) / RFU PIWIL2 (11732686_x_at) / Fold change /veh PIWIL2 (11732686_x_at) / RFU ORM1 (11744905_x_at) / Fold change /veh ORM1 (11744905_x_at) / RFU CCDC152 (11743942_at) / Fold change /veh CCDC152 (11743942_at) / RFU ECM1 (11717891_a_at) / Fold change /veh ECM1 (11717891_a_at) / RFU IL23R (11748794_a_at) / Fold change /veh IL23R (11748794_a_at) / RFU TNFAIP8L3 (11732012_x_at) / Fold change /veh TNFAIP8L3 (11732012_x_at) / RFU MBOAT4 (11741988_at) / Fold change /veh MBOAT4 (11741988_at) / RFU 11764193_at / Fold change /veh 11764193_at / RFU TMEM53 (11763286_at) / Fold change /veh TMEM53 (11763286_at) / RFU MAGEB2 (11727129_at) / Fold change /veh MAGEB2 (11727129_at) / RFU TMEM200A (11744735_a_at) / Fold change /veh TMEM200A (11744735_a_at) / RFU CCDC152 (11751479_a_at) / Fold change /veh CCDC152 (11751479_a_at) / RFU FAM211A (11726209_a_at) / Fold change /veh FAM211A (11726209_a_at) / RFU RGS16 (11746705_a_at) / Fold change /veh RGS16 (11746705_a_at) / RFU VCAN (11755009_s_at) / Fold change /veh VCAN (11755009_s_at) / RFU RHOB (11743442_s_at) / Fold change /veh RHOB (11743442_s_at) / RFU RGS16 (11720943_a_at) / Fold change /veh RGS16 (11720943_a_at) / RFU RGS16 (11720944_at) / Fold change /veh RGS16 (11720944_at) / RFU, VPS4B / Fold change vs veh, VPS4B / RFU, CREB1 / Fold change vs veh, CREB1 / RFU, DNAJC13 / Fold change vs veh, DNAJC13 / RFU, GNAQ / Fold change vs veh, GNAQ / RFU, CDK5R1 / Fold change vs veh, CDK5R1 / RFU, ZRANB3 / Fold change vs veh, ZRANB3 / RFU, CUL4A / Fold change vs veh, CUL4A / RFU, CCNY / Fold change vs veh, CCNY / RFU, UFL1 / Fold change vs veh, UFL1 / RFU, COG3 / Fold change vs veh, COG3 / RFU, DIAPH2 / Fold change vs veh, DIAPH2 / RFU, SKA2 / Fold change vs veh, SKA2 / RFU, AFF3 / Fold change vs veh, AFF3 / RFU, LMF1 / Fold change vs veh, LMF1 / RFU, IPO11 / Fold change vs veh, IPO11 / RFU, DFFB / Fold change vs veh, DFFB / RFU, FOXP1 / Fold change vs veh, FOXP1 / RFU, CARD8 / Fold change vs veh, CARD8 / RFU, STRN3 / Fold change vs veh, STRN3 / RFU, ADK / Fold change vs veh, ADK / RFU, RASSF2 / Fold change vs veh, RASSF2 / RFU, WIPF1 / Fold change vs veh, WIPF1 / RFU, LARP1B / Fold change vs veh, LARP1B / RFU, RASA1 / Fold change vs veh, RASA1 / RFU, RB1 / Fold change vs veh, RB1 / RFU, PPFIA1 / Fold change vs veh, PPFIA1 / RFU, MAT2A / Fold change vs veh, MAT2A / RFU, CCT5 / Fold change vs veh, CCT5 / RFU, WDR92 / Fold change vs veh, WDR92 / RFU, CUX1 / Fold change vs veh, CUX1 / RFU, TTC7A / Fold change vs veh, TTC7A / RFU, TMEM135 / Fold change vs veh, TMEM135 / RFU, DEPTOR / Fold change vs veh, DEPTOR / RFU, CPM / Fold change vs veh, CPM / RFU, DNAJB6 / Fold change vs veh, DNAJB6 / RFU, CACNA2D3 / Fold change vs veh, CACNA2D3 / RFU, DTX4 / Fold change vs veh, DTX4 / RFU, TFCP2 / Fold change vs veh, TFCP2 / RFU, GMCL1 /// GMCL1P1 / Fold change vs veh, GMCL1 /// GMCL1P1 / RFU, AEBP2 / Fold change vs veh, AEBP2 / RFU, SNHG1 /// SNORD22 /// SNORD25 /// SNORD26 /// SNORD27 /// SNORD28 /// SNORD29 /// SNORD31 / Fold change vs veh, SNHG1 /// SNORD22 /// SNORD25 /// SNORD26 /// SNORD27 /// SNORD28 /// SNORD29 /// SNORD31 / Fold change (Aza/veh), C12orf56 (ProbeSet 11735607_a_at) / Fold change (ACY-1035/veh), C12orf56 (ProbeSet 11735607_a_at) / Fold change (Aza/veh), FGFR1OP (ProbeSet 11751329_s_at) / Fold change (ACY-1035/veh), FGFR1OP (ProbeSet 11751329_s_at) / Fold change (Aza/veh), VPS36 (ProbeSet 11739960_a_at) / Fold change (ACY-1035/veh), VPS36 (ProbeSet 11739960_a_at) / RFU SYPL1 (11715823_x_at) / Fold change /veh SYPL1 (11715823_x_at) / RFU IGFBP7 (11715501_s_at) / Fold change /veh IGFBP7 (11715501_s_at) / RFU REEP3 (11722064_at) / Fold change /veh REEP3 (11722064_at) / RFU IGLL1 (11728026_x_at) / Fold change /veh IGLL1 (11728026_x_at): dose or concentration left out as unconfirmed
# Details: ProbeSet 11723944_a_at; LIST B
smiles,measurement,value
Nc1ncn([C@@H]2O[C@H](CO)[C@@H](O)[C@H]2O)c(=O)n1 [azacitidine],"RFU, PTTG1IP",678.15 RFU
